Results on two molecules are retold here after paper PMC5589576, “Targeting the apoptotic Mcl-1-PUMA interface with a dual-acting compound” (Oncotarget, 2017).

Molecules are shown by their SMILES.

One assay addresses Mcl-1. The settings on record: known Mcl-1 inhibitor; cited from earlier work.
Another assay concerns A2780 cells. The experiment in a line: MTT test on suppressing cancer cells, A2780. The class given is cell-based. The settings on record: Homo sapiens, 24h. On the procedure: (§1) (Nunc). To check the interference effects of candidate membranes. […]
(§2) Microplate Spectrophotometer with excitation wavelength (Boster). being 432 nm. The IC50 calculations were performed by Graphpad Prism 5 (Graphpad software, Inc.). Key residues discovery
(§3) Tests of candidate compounds on suppressing In the present study, key residues involved in the […]
(§4) by using site-directed mutagenesis and FPA competition
(§5) Cell lines including A2780, MCF-7 and SMMC- assays in combination. According to the results of pairwise 7721 were cultured to the logarithmic growth phase per-residue free energy decomposition, the residues in 3 ml complete media (RPMI1640 plus 10%FBS), contributing a lot to the binding of PUMA/Comp8 to 4 Mcl-1 were subjected to site-directed mutagenesis. By respectively. After adjusting their concentrations to 5×10 reference to the primers listed in Supplementary Table5, cells/ml with complete media, these cell lines were plated overlapping extension PCR was conducted to realize into 96-well, transparent, flat-bottom plates (150 μl/well), site-directed mutagenesis. After verified by gene each point was prepared in three replicates. The density sequencing, the individually mutated PCR products were of cultured cell lines was evaluated by MTT tests. When cloned into the expressing vector pET-43.1a (+). […]
A general note: Tetrazolium dyes change colour on reduction, which living cells bring about.

The next assay relates to SMMC-7721 cells. As to the kind of experiment: MTT test on suppressing cancer cells, SMMC-7721. The class given is cell-based. The settings on record: Homo sapiens, 24h. Here is the method:
as §1, §2, §3, §4, §5

A further assay has as its system MCF-7 cells. As to the kind of experiment: MTT test on suppressing cancer cells, MCF-7. The class given is cell-based. The settings on record: Homo sapiens, MCF7, 24h. Here is the method: as §1, §2, §3, §4, §5
In assay [1] the test system is DLD-1 cells infected with Ad-PUMA. As to the kind of experiment: PUMA-dependent apoptosis of DLD-1 cells infected with Ad-PUMA (Caspase-Glo 3/7). The class given is cell-based. The settings on record: Homo sapiens; DLD-1, Ad-PUMA, 48h; read-out: EC50 (action on apoptosis). Here is the method: Tests of candidate compounds on blocking Synthesis of compound 8
PUMA-dependent apoptosis To a suspension of rhodanine (7.57 mmol) in dry Construction and validation of recombinant ethanol (10 mL), 4-Biphentlaldehyde (11.3 mmol), N-(2-Adenovirus By taking pHBAd-MCMV-GFP (Hanbio) as hydroxyethyl) piperazine (11.3 mmol), and glacial acetic vector, the construction and purification of Adenoviruses acid (0.75 mmol) were added and the resulting mixture overexpressing PUMA and PUMA-∆BH3 (PUMA was further stirred under reflux for 5-6 h. The reaction was without the BH3 domain) were performed according to completed and then cooled in an ice bath. The precipitated former reports. […]
various multiplicity of infection (MOI, 6 points, from 0 The crystal structure of Comp8 was solved by X-ray to 160) in 96-well, white, flat-bottom plates (Nunc). […] Shake gently and record the luminescence of each well on TECAN Infinite M1000 S.Y.Z., H.C., J.N.L and J.Y.L. conceived the project.
Microplate Spectrophotometer. The data were analyzed J.Y.L. and Z.T. designed the experiment. J.Y.L., Z.T., by Graphpad Prism and suitable MOI of Ad-PUMA for N.Z., X.Y.L. and C.Y.L. performed the experiments and following cell infection can be determined in this process. prepared the manuscript. […]
added to make the final compound concentrations range 2. […] The results were detected by flexible docking. […]

For assay [2], the system named is A2780, MCF-7 and SMMC-7721. As to the kind of experiment: MTT test, three cancer cell lines together. The class given is cell-based. Conditions: on A2780, MCF-7 and SMMC-7721, range over the three lines. On the procedure:
as §1, §2, §3, §4, §5

On to `O=C(O)CSc1cc(NS(=O)(=O)c2ccc(Br)cc2)c2ccccc2c1O` [UMI-77], for which, at Mcl-1, the Ki (commonly a measure of affinity in units of concentration, obtained from inhibition or displacement) is 0.49 µM.

In the case of `CC1(C)CCC(c2ccc(Cl)cc2)=C(CN2CCN(c3ccc(C(=O)NS(=O)(=O)c4ccc(N[C@H](CCN5CCOCC5)CSc5ccccc5)c(S(=O)(=O)C(F)(F)F)c4)cc3)CC2)C1` [ABT-263, reference compound], the IC50 (as a rule, the concentration needed to halve the response being measured) is 21.8 ± 1.85 µM in the assay with A2780 cells, 29.5 ± 1.36 µM in the assay with SMMC-7721 cells, 32 ± 3.48 µM in the assay with MCF-7 cells and 20 to 50 µM in assay [2]. Besides, the EC50 – broadly, the concentration at which the effect is half-maximal – in assay [1] was 2.75 ± 0.24 µM.
